# Structures can show the parent of a compound that is named as a salt.
# Legend:
# A431 cells [1] = test: Drug screening with live/dead assay on A431 cells in the MECT microfluidic device; type: cell-based
# Method: Taking advantage of the ability of the MECT device in generating uniform gradient within each chamber, a drug screening study with A431 cells administrated with control media and Dox was performed. Five conditions were studied: (1) Cells were stained with live/dead assay 24 hours after seeding without any media flow. This serves as the control; (2) cells were perfused by DMEM from both inlets for 12 hours before live/dead staining. This experiment examined the effect of shear stress on cell viability; (3, 4, 5) cells were perfused for 12 hours with DMEM/Dox (at a concentration of 30 μg/ml) from the bottom inlet and DMEM from the top inlet at flow rates of 0.05 μl/min (3), 0.1 μl/min (4) and 0.2 μl/min (5) for both inlets. Representative images for the studies of condition 1, 2, 4 and 5 are shown in FIGS. 6a-6d and of condition 3 in FIG. 7a. These studies were performed after the cells had been seeded within the microchambers for 24 hours. […] This provided clear evidence that cells within each chamber were viable and the device works properly. The effect of shear stress was then examined by perfusion of both inlets with a control media, Dulbecco's Modified Eagle Medium (DMEM) at a flow rate of 0.1 μl/min. Overall a slightly lower cell viability, at an average of 88%, was observed due to the shear induced cell death (FIG. 6b). In addition, the cell viability increased from the columns closest to the inlet of the device to the columns closes to the outlets, in agreement with COMSOL simulation where the shear stress is higher in the columns close to the inlets (FIG. 5).
# As discussed in microchannel fabrication, PDMS with ratio 1:10 were used to fabricate the microchannel and it was bonded to glass-slides and cured for 30 min at 80° C. inside the oven. Human fibronectin protein (Thermofisher) with the concentration of 50 μg/ml was used to coat the surface of the glass-slide as the bottom layer of the microchannels. Fibronectin was flowed into the microchannels by syringes and incubated for 2 hours. The fibronectin coated microchannel was washed with PBS. A mixture of the cell and DMEM was flowed into the microchannel by syringe pump at a flow rate (30 μl/min). The concentration of cell mixture was about 10 million cells per ml of media. Cell attachment and proliferation inside the microchannel was reached by placing the microchannel inside the incubator for 24 hours.
# Doxorubicin hydrochloride 98.0-102.0% (HPLC) with molecular weight of 579.98 was dissolved in water and was diluted in DMEM media. […] Cells were then counted with ImageJ cell counter module. Viability of the cells was calculated as the ratio of the live cells (stained green) over the total number of the cell, summation of the live (green) and dead (red) cells within each chamber.
# A431 cells [2] = test: Multi-well (static culture) Dox study on A431 cells, live/dead assay; type: cell-based; conditions: Dox 0, 6, 12, 18, 24 and 30 μg/ml; device flow rate 0.05 μl/min
# Method: Viability data with DMEM/Dox at the inlets at a flow rate of 0.05 μl/ml was compared with Dox treatment of A431 cells in static culture. A lower flow rate was chosen to minimize the effect of the shear stress on cell detachment and cell death. […] Cell viabilities data was collected by counting cells stained green and red from these chambers. According to simulation data, the concentration of Dox in the chambers 13 through 18 are: 0 μg/ml, 6 μg/ml, 12 μg/ml, 18 μg/ml, 24 μg/ml and 30 μg/ml. These dosages were applied in static culture and the viability data were collected. […] Doxorubicin hydrochloride 98.0-102.0% (HPLC) with molecular weight of 579.98 was dissolved in water and was diluted in DMEM media. For A431 cells, live-dead staining kit was diluted with PBS and was continuously flowed into the chambers with cells for 2 hours. Live-dead kit contains, Calcein-AM which stains green to the cytoskeleton of live cells and ethidium homodimer which stains red to the nuclei of dead cells. Cells were then counted with ImageJ cell counter module. Viability of the cells was calculated as the ratio of the live cells (stained green) over the total number of the cell, summation of the live (green) and dead (red) cells within each chamber.
smiles,measurement,setting,value
"COc1cccc2c1C(=O)c1c(O)c3c(c(O)c1C2=O)C[C@@](O)(C(=O)CO)C[C@@H]3O[C@H]1C[C@H](N)[C@H](O)[C@H](C)O1 [Dox, Doxorubicin hydrochloride]",overall cell viability in condition 5 (0.2 μl/min DMEM/Dox) versus condition 4 (0.1 μl/min DMEM/Dox),"A431 cells [1]; 12 h, Dox 30 μg/ml, higher shear stress at higher flow rate",clearly lower
same,cell viability from chambers #13 to #18,"A431 cells [1]; 12 h DMEM/Dox 30 μg/ml, flow rates 0.05, 0.1 and 0.2 μl/min (conditions 3 through 5)",overall decline
same,cell viability from top chamber to bottom chamber of each column (lowest to highest Dox concentration),"A431 cells [1]; 12 h perfusion, DMEM top inlet, DMEM/Dox 30 μg/ml bottom inlet, flow rates 0.1 and 0.2 μl/min",decreased significantly
same,effect of increasing doxorubicin concentrations within chambers on skin cancer cells,A431 cells [1]; doxorubicin flowed into chambers at different flow rate,induces cell death
same,cell viability in static culture compared with device chambers #13 through #18,A431 cells [2],reasonable agreement

# From patent US12064759B2, “Microfluidic device with embedded cell culture chambers for high throughput biological assays” (NUtech Ventures, priority 2020, dated 2024)
